From the supplement of paper PMC10307832

Compound: CCN1C(=O)C2=CC(=C(N=C2N(C1=O)C3CC3)N)C(=O)N + CC(=O)c1c(C)c2cnc(Nc3ccc(N4CCNCC4)cn3)nc2n(C2CCCC2)c1=O [Palbociclib] (partner 0.5 µM)
Assay: relative viability (nuclei count vs DMSO), 5 days (fraction); higher = more cells survive
In short: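 Relative viability is defined as nuclei in treated wells over nuclei in vehicle wells. Duplicate plates were run and medians reported. Lung cancer cell lines in 1536-well plates were dosed by pin tool one day after seeding, with one drug or with a fixed anchor-drug dose plus five library-drug doses (not always all listed) in √10 steps, and nuclei were counted after 5 days.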

| Cell Line | relative viability (first compound 0.253 µM) | relative viability (first compound 2.53 µM) | relative viability (first compound 8 µM) | relative viability (first compound 0.8 µM) |
| --- | --- | --- | --- | --- |
| EMC-BAC-2 | 0.543 | 0.47 | 0.468 |  |
| NCI-H727 | 0.642 | 0.605 | 0.553 | 0.616 |
| LU99A | 0.461 | 0.419 | 0.409 | 0.448 |
| LK-2 | 0.705 | 0.683 | 0.974 | 0.565 |
| NCI-H3122 | 0.183 | 0.152 | 0.209 | 0.182 |
| NCI-H2347 | 0.458 | 0.445 | 0.492 | 0.489 |
| HCC-827 | 0.475 | 0.395 | 0.517 | 0.45 |
| NCI-H1666 | 0.683 | 0.629 | 0.65 | 0.654 |
| NCI-H358 | 0.122 | 0.127 | 0.14 | 0.134 |
| 201T | 0.392 | 0.38 | 0.369 | 0.348 |
| RERF-LC-KJ | 1.09 | 1.09 | 1.13 | 1.1 |
| NCI-H2405 | 0.523 | 0.554 | 0.527 |  |
| LXF-289 | 0.616 | 0.657 | 0.588 | 0.581 |
| EKVX | 0.63 | 0.401 | 0.348 | 0.471 |
| A-427 | 0.497 | 0.486 | 0.535 | 0.522 |
| ChaGo-K-1 | 0.898 | 0.897 | 0.99 | 0.97 |
| NCI-H2342 | 0.549 | 0.426 | 0.461 | 0.533 |
| SK-MES-1 | 0.362 | 0.324 | 0.282 | 0.285 |
| LCLC-97TM1 | 0.272 | 0.294 | 0.181 | 0.244 |
| NCI-H2170 | 0.385 | 0.395 | 0.363 | 0.389 |
| NCI-H1993 | 0.414 | 0.651 | 0.676 | 0.561 |
| NCI-H460 | 0.22 | 0.115 | 0.192 | 0.151 |
| NCI-H1975 | 0.564 | 0.602 | 0.489 | 0.623 |
| SW 1573 | 0.39 | 0.399 | 0.451 | 0.384 |

| Cell Line | relative viability (first compound 0.253 µM) | relative viability (first compound 2.53 µM) | relative viability (first compound 8 µM) | relative viability (first compound 0.8 µM) |
| --- | --- | --- | --- | --- |
| NCI-H322M | 0.478 | 0.482 | 0.502 | 0.455 |
| NCI-H1651 | 0.471 | 0.512 | 0.501 | 0.489 |
| HARA | 0.265 | 0.195 | 0.229 | 0.32 |
| H3255 | 0.321 | 0.327 | 0.279 | 0.335 |
| NCI-H441 | 0.22 | 0.224 | 0.244 | 0.231 |
| CAL-12T | 0.452 | 0.475 | 0.418 | 0.448 |
| ABC-1 | 0.819 | 0.709 | 0.799 |  |
| NCI-H1792 | 0.674 | 0.668 | 0.653 | 0.631 |
| NCI-H1437 | 0.337 | 0.315 | 0.245 | 0.323 |
| HOP-62 | 0.516 | 0.415 | 0.474 | 0.428 |
| EPLC-272H | 0.309 | 0.331 | 0.358 | 0.358 |
| COR-L 105 | 0.377 | 0.397 | 0.366 | 0.431 |
| HCC-366 | 0.334 | 0.378 | 0.417 | 0.403 |
| HCC-44 | 0.998 | 0.972 | 1 | 0.912 |
| NCI-H2009 | 0.208 | 0.21 | 0.186 | 0.184 |
| NCI-H23 | 0.502 | 0.461 | 0.49 | 0.604 |
| NCI-H838 | 0.251 | 0.215 | 0.213 | 0.216 |
| NCI-H1355 | 0.418 | 0.396 | 0.395 | 0.358 |
| NCI-H1944 | 0.421 | 0.33 | 0.365 | 0.324 |
| NCI-H2023 | 0.438 | 0.313 | 0.382 | 0.39 |
| NCI-H1650 | 0.315 | 0.346 | 0.313 | 0.364 |
| NCI-H1395 | 0.707 | 0.603 | 0.578 | 0.694 |
| NCI-H2087 | 0.216 | 0.275 | 0.236 | 0.238 |
| PC-14 | 0.555 | 0.526 | 0.514 | 0.525 |

| Cell Line | relative viability (first compound 0.253 µM) | relative viability (first compound 2.53 µM) | relative viability (first compound 8 µM) | relative viability (first compound 0.8 µM) |
| --- | --- | --- | --- | --- |
| NCI-H1793 | 0.258 | 0.27 | 0.3 | 0.322 |
| LC-2-ad | 0.424 | 0.483 | 0.496 | 0.53 |
| HCC-78 | 0.472 | 0.509 | 0.449 | 0.463 |
| NCI-H522 | 0.954 | 0.794 | 1.1 | 0.966 |
| LOU-NH91 | 0.542 | 0.516 | 0.513 | 0.554 |
| NCI-H1734 | 0.346 | 0.363 | 0.36 | 0.328 |
| NCI-H520 | 0.24 | 0.185 | 0.203 | 0.228 |
| SK-LU-1 | 0.389 | 0.371 | 0.412 | 0.45 |
| NCI-H647 | 0.434 | 0.328 | 0.355 | 0.356 |
| NCI-H1755 | 0.443 | 0.436 | 0.44 | 0.453 |
| UMC-11 | 0.333 | 0.336 | 0.279 | 0.336 |
| NCI-H650 | 0.363 | 0.342 | 0.334 | 0.299 |
| HCC-15 | 0.764 | 0.675 | 0.712 | 0.731 |
| NCI-H2126 | 0.332 | 0.349 | 0.364 | 0.345 |
| NCI-H2085 | 0.479 | 0.441 | 0.445 | 0.446 |
| SW 900 | 0.551 | 0.521 | 0.669 | 0.558 |
| BEN | 0.448 | 0.411 | 0.456 | 0.478 |
| NCI-H661 | 0.391 | 0.39 | 0.4 | 0.389 |
| LCLC-103H | 0.446 | 0.479 | 0.456 | 0.481 |
| PC-3 [JPC-3] | 0.545 | 0.559 | 0.52 |  |
| NCI-H2228 | 0.73 | 0.866 | 0.811 | 0.683 |
| COR-L23 | 0.355 | 0.322 | 0.266 | 0.334 |
| NCI-H1915 | 0.531 | 0.493 | 0.526 | 0.508 |
